Where a name gives a salt, the structure may show the parent alone.
Tested on: MTT (mouse pheochromocytoma)
Assay: IC50 of cell viability (ATP content)
Settings: (24 or 48 h)
Summary of the method: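 CellTiter-Glo ATP luminescence, read after 15 minutes, was used to assess MTT mouse pheochromocytoma cells treated for 24 or 48 hrs with library compounds (final 0.5 nM to 46 µM, 8 concentrations). The cells had been plated at 5 µl of 200,000 cells/ml per well in white 1536-well plates in DMEM with 5% FBS and 1% horse serum and cultured overnight at 37°C, 5% CO2. Normalisation set positive-control wells to 100% and DMSO wells to 0%. The IC50 was then determined by four-parameter logistic fitting.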

| Compound | IC50 of cell viability |
| --- | --- |
| Nc1nc(=O)n([C@@H]2CS[C@H](CO)O2)cc1F [EMTRICITABINE] | > 46 µM |
| Cl\C1=C(/Cl)C2(Cl)C3C4CC(C5OC45)C3C1(Cl)C2(Cl)Cl (stereo not drawn) [ENDRIN] | > 46 µM |
| FC(F)OC(F)(F)C(F)Cl (stereo not drawn) [ENFLURANE] | > 46 µM |
| CCCCCCCCCCCCCCCCCCCCCC(=O)Nc1ccn([C@@H]2O[C@H](CO)[C@@H](O)[C@@H]2O)c(=O)n1 [ENOCITABINE] | > 46 µM |
| CC1(C)[C@@H](O)CC[C@@]2(C)[C@H]1CC[C@]3(C)[C@@H]2C(=O)\C=C/4[C@@H]5C[C@](C)(CC[C@]5(C)CC[C@@]34C)C(O)=O [ENOXOLONE] | > 46 µM |
| CCN1CCN(CC1)C2=CC3=C(C=C2F)C(=O)C(=C/N3C4CC4)\C(O)=O [ENROFLOXACIN] | > 46 µM |
| C=C1C(n2cnc3c(O)nc(N)nc32)C[C@H](O)[C@H]1CO (stereo partly drawn) [ENTECAVIR] | > 46 µM |
| Cc1ccc(/C=C2/C(=O)C3(C)CCC2C3(C)C)cc1 (stereo not drawn) [ENZACAMENE] | > 46 µM |
| O=C([O-])c1ccccc1-c1c2cc(Br)c(=O)c(Br)c-2oc2c(Br)c([O-])c(Br)cc12 [EOSINE YELLOWISH] | > 46 µM |
| CCc1ccc(C(=O)C(C)CN2CCCCC2)cc1 (stereo not drawn) [EPERISONE HYDROCHLORIDE] | > 46 µM |
| CNC(C)[C@@H](O)c1ccccc1.Cl (stereo partly drawn) [EPHEDRINE (1R,2S) HYDROCHLORIDE] | > 46 µM |
| Oc1cc(O)c2c(c1)OC(c1ccc(O)c(O)c1)C(O)C2 (stereo not drawn) [EPICATECHIN] | > 46 µM |
| CC(C)CCC[C@@H](C)[C@H]1CC[C@H]2[C@@H]3CC[C@@H]4C[C@H](O)CC[C@]4(C)[C@H]3CC[C@]12C [EPIDIHYDROCHOLESTERIN] | > 46 µM |
| NC1=NCC2c3ccccc3Cc3ccccc3N12 (stereo not drawn) [EPINASTINE HYDROCHLORIDE] | > 46 µM |
| CNC[C@H](O)c1ccc(O)c(O)c1 [EPINEPHRINE] | > 46 µM |
| CCCCC[C@H](O)/C=C/[C@@H]1[C@H]2C/C(=C/CCCC(=O)[O-])O[C@H]2C[C@H]1O [EPOPROSTENOL SODIUM] | > 46 µM |
| C/C(=C\c1csc(C)n1)[C@@H]1C[C@@H]2O[C@]2(C)CCC[C@H](C)[C@H](O)[C@@H](C)C(=O)C(C)(C)[C@@H](O)CC(=O)O1 [EPOTHILONE B] | > 46 µM |
| CCOC(CN1CCN(CC(C)C(=O)c2ccccc2)CC1)c1ccccc1 (stereo not drawn) [EPRAZINONE HYDROCHLORIDE] | > 46 µM |
| N=C(N)NCCCC[C@@H]1NC(=O)CCSSC[C@@H](C(N)=O)NC(=O)[C@@H]2CCCN2C(=O)[C@H](Cc2c[nH]c3ccccc23)NC(=O)[C@H](CC(=O)O)NC(=O)CNC1=O [EPTIFIBATIDE] | > 46 µM |
| C=C1CCC(O)C/C1=C/C=C1\CCC[C@]2(C)[C@@H]([C@H](C)/C=C/[C@H](C)C(C)C)CC[C@@H]12 (stereo partly drawn) [ERGOCALCIFEROL] | > 46 µM |
| CC(CO)NC(=O)C1C=C2c3cccc4[nH]cc(c34)CC2N(C)C1 (stereo not drawn) [ERGONOVINE] | > 46 µM |
| CCC(=O)O[C@H]1C(O[C@@H]2C(C)[C@H](O[C@H]3C[C@@](C)(OC)C(O)C(C)O3)C(C)C(=O)OC(CC)[C@@](C)(O)C(O)[C@H](C)C(=O)C(C)C[C@]2(C)O)OC(C)CC1N(C)C.CCCCCCCCCCCCO[S+](=O)([O-])O (stereo partly drawn) [ERYTHROMYCIN ESTOLATE] | > 46 µM |
| CCC1OC(=O)C(C)[C@@H](O[C@H]2C[C@@](C)(OC)C(O)C(C)O2)C(C)[C@@H](O[C@@H]2OC(C)CC(N(C)C)C2O)[C@@](C)(O)CC(C)C(=O)[C@@H](C)C(O)[C@]1(C)O (stereo partly drawn) [ERYTHROMYCIN] | > 46 µM |

| Compound | IC50 of cell viability |
| --- | --- |
| CN(C)CCC[C@@]1(c2ccc(F)cc2)OCc2cc(C#N)ccc21.O=C(O)C(=O)O [ESCITALOPRAM OXALATE] | > 46 µM |
| CNC1(c2ccccc2Cl)CCCCC1=O (stereo not drawn) [ESKETAMINUM] | > 46 µM |
| CC(=O)SCC(CC(=O)c1ccc(C)cc1)C(=O)O (stereo not drawn) [ESONARIMOD] | > 46 µM |
| ClC1=CC=C2[N]3C=NN=C3C\N=C(\C4=CC=CC=C4)C2=C1 [ESTAZOLAM] | > 46 µM |
| CC(=O)OC1CCC2C3CCc4cc(O)ccc4C3CCC12C (stereo not drawn) [ESTRADIOL ACETATE] | > 46 µM |
| C[C@]12CC[C@@H]3c4ccc(OC(=O)c5ccccc5)cc4CC[C@H]3[C@@H]1CC[C@@H]2O [ESTRADIOL BENZOATE] | > 46 µM |
| C[C@]12CC[C@@H]3c4ccc(O)cc4CC[C@H]3[C@@H]1CCC2OC(=O)CCC1CCCC1 (stereo partly drawn) [ESTRADIOL CYPIONATE] | > 46 µM |
| CCCCC(=O)OC1CCC2C3CCc4cc(O)ccc4C3CC[C@]12C (stereo partly drawn) [ESTRADIOL VALERATE] | > 46 µM |
| C[C@]12CC[C@@H]3c4ccc(OC(=O)N(CCCl)CCCl)cc4CC[C@@H]3[C@H]1CC[C@@H]2OP(=O)(O)O [ESTRAMUSTINE PHOSPHATE] | > 46 µM |
| CCCCCCCCCCCCCCCCCCOC[C@H](COP(=O)([O-])OCC[N+](C)(C)C)OC [ET-18-OCH3] | > 46 µM |
| CCN(CC)CCOc1ccccc1C(=O)CCc1ccccc1 [ETAFENONE HYDROCHLORIDE] | > 46 µM |
| O=C(Cn1ccnc1[N+](=O)[O-])NCCO [ETANIDAZOLE] | > 46 µM |
| CCC1(c2ccccc2)C(=O)N(COC)C(=O)N(COC)C1=O [ETEROBARBUM] | > 46 µM |
| C#C[C@]1(O)CC[C@H]2[C@@H]3CCc4cc(O)ccc4[C@H]3CC[C@@]21C [ETHINYL ESTRADIOL] | > 46 µM |
| CC\12CCC(=O)\C=C1CCC3C2CCC4(C)C3CCC4(O)C#C (stereo not drawn) [ETHISTERONE] | > 46 µM |
| C#C[C@]1(O)CC[C@H]2[C@@H]3CCC4=CC(=O)CCC4(C)[C@H]3CCC21C (stereo partly drawn) [ETHISTERONUM] | > 46 µM |
| CCOc1ccc2nc([S+](N)(=O)[O-])sc2c1 [ETHOXZOLAMIDE] | > 46 µM |
| CCCCC/C=C/C/C=C/CCCCCCCC(=O)OCC [ETHYL LINOLEATE] | > 46 µM |
| CCOC(=O)c1cccnc1 [ETHYL NICOTINATE] | > 46 µM |
| CCOC(=O)c1ccccc1O [ETHYL SALICYLATE] | > 46 µM |
| CCOC1=C2O[C@H]3[C@@H](O)\C=C/[C@H]4[C@H]5CC(=C2[C@@]34CCN5C)C=C1 [ETHYLMORPHINE HYDROCHLORIDE] | > 46 µM |
| CCC(C(=O)NC(N)=O)c1ccccc1 (stereo not drawn) [ETHYLPHENACEMIDE] | > 46 µM |
| C#C[C@]1(OC(C)=O)CC[C@H]2[C@@H]3CCC4=C[C@@H](OC(C)=O)CC[C@@H]4[C@H]3CC[C@@]21C [ETHYNODIOL DIACETATE] | > 46 µM |

| Compound | IC50 of cell viability |
| --- | --- |
| CC(O)(P(=O)(O)O)P(=O)(O)O [ETIDRONATE DISODIUM] | > 46 µM |
| CCc1cc2c(s1)-n1c(C)nnc1CN=C2c1ccccc1Cl [ETIZOLAM] | > 46 µM |
| CC[C@]12CC(=C)[C@H]3[C@@H](CCC/4=C/C(=O)CC[C@H]34)[C@@H]1CC[C@@]2(O)C#C [ETONOGESTREL] | > 46 µM |
| Cc1ccc(-c2ncc(Cl)cc2-c2ccc(S(C)(=O)=O)cc2)cn1 [ETORICOXIB] | > 46 µM |
| CCOC(=O)/C=C(C)/C=C/C=C(C)/C=C/c1c(C)cc(OC)c(C)c1C [ETRETINATE] | > 46 µM |
| CCC(N)Cc1c[nH]c2ccccc12 (stereo not drawn) [ETRYPTAMINUM] | > 46 µM |
| CO[C@H]1C[C@@H]2CC[C@@H](C)[C@@](O)(O2)C(=O)C(=O)N2CCCC[C@H]2C(=O)O[C@H]([C@H](C)C[C@@H]2CC[C@@H](OCCO)[C@H](OC)C2)CC(=O)[C@H](C)C=C(C)[C@@H](O)[C@@H](OC)C(=O)[C@H](C)C[C@H](C)/C=C/C=C/C=C1C [EVEROLIMUS] | > 46 µM |
| CCCCCCOc1ccccc1C(N)=O [EXALAMIDE] | > 46 µM |
| C[C@]12CCC3C(CC(=C)C\4=C\C(=O)\C=C/[C@@]34C)C1CCC2=O (stereo partly drawn) [EXEMESTANE] | > 46 µM |
| O=C1C(CCC(O)c2ccc(F)cc2)C(c2ccc(O)cc2)N1c1ccc(F)cc1 (stereo not drawn) [EZETIMIBE] | > 46 µM |
| O=c1c2ccccc2[se]n1-c1ccccc1 [Ebselen] | > 46 µM |
| CC[C@@]12CCCN3CCc4c(n(c5ccccc45)C(=O)C1)[C@H]32 [Eburnamonine (-)] | > 46 µM |
| CC[N+](C)(C)c1cccc(O)c1 [Edrophonium chloride] | > 46 µM |
| CCOC(=O)COc1ccc2c(=O)cc(-c3ccccc3)oc2c1 [Efloxate] | > 46 µM |
| CC1=C(C(=O)OCCN(Cc2ccccc2)c2ccccc2)C(c2cccc([N+](=O)[O-])c2)C(P2(=O)OCC(C)(C)CO2)=C(C)N1 (stereo not drawn) [Efonidipine] | > 46 µM |
| OC(CN1CCC(Cc2ccc(F)cc2)CC1)c1ccc(Cl)cc1 (stereo not drawn) [Eliprodil] | > 46 µM |
| CC(NC(CCc1ccccc1)C(=O)O)C(=O)N1CCCC1C(=O)O (stereo not drawn) [Enalapril acid] | > 46 µM |
| CCOC(=O)[C@H](CCc1ccccc1)N[C@@H](C)C(=O)N1CCC[C@H]1C(=O)O [Enalaprila] | > 46 µM |
| COc1ccc(C(=O)Nc2ccccc2CCC2CCCCN2C)cc1 (stereo not drawn) [Encainide hydrochloride] | > 46 µM |
| CCN(CC)CCOc1ccc(/C(=C(/Cl)c2ccccc2)c2ccccc2)cc1 [Enclomifene] | > 46 µM |
| CCN1\C=C(\C(O)=O)C(=O)C2=C1N=C(N3CCNCC3)C(=C2)F [Enoxacin] | > 46 µM |
| CSC1=CC=C(C=C1)C(=O)\C2=C(/C)NC(=O)N2 [Enoximone] | > 46 µM |
